Experiments:
mice ears = test: Mouse ear thickness after a single UVB irradiation and topical application for five days
Method: Prior to the experiment, the thickness of mice ears (FVB strain, female, 7 weeks of age, n=3-4/group) was measured with a thickness gauge (Mitsutoyo Corp.). […] The following day, ear thickness of both ears was measured. This procedure was continued for five consecutive days.
In a second experiment, solution was applied to each ear after exposure to UVB irradiation. The following day, the thickness of both ears was measured. UVB irradiation was only applied once and solutions were administered a total of five times (once a day/consecutive five days).

back skin of mice = test: Primary irritation score on clipped back skin of mice; type: in vivo, mice (FVB strain); settings: for irritation category (0-4): 5 μl topical daily
Method: A third primary irritation experiment was performed. Back skin of mice (FVB strain, female, 7 weeks of age, n=3-4/group) was clipped of hair with an electric clipper and 5 μl of each solution was topically applied. The following day, irritation was evaluated according to five categories (0: no irritation, 1; slight irritation, 2:clear irritation, 3:strong irritation, 4:severe irritation) and 5 μl of each solution was topically applied. This procedure was continued for a total of five consecutive days.

hairless Skh-1 mice = test: UVB-induced chronic skin damage: skin wrinkling score after 10 weeks; type: in vivo, mice (hairless Skh-1)
Method: Mice of groups 1 and 3 were exposed to UVB irradiation, using fluorescent lamps (Southern New England Ultraviolet). The height of the lamps was adjusted to deliver 0.35 mW/cm^2 at the dorsal skin surface of the mice. Samples were applied (100 μl) on the back of UVB irradiated and non-UVB irradiated mice. This procedure was repeated three times weekly for 10 weeks. […] The total cumulative dose of UVB was 6.54 J/cm^2.
After 10 weeks, skin wrinkling was evaluated by two independent persons according to five categories (0: no wrinkle; 1: slight wrinkle, 2: clear wrinkle, 3: strong wrinkle; 4: severe wrinkle).

**Q.** For `Cn1c(=O)c2c(ncn2C)n(C)c1=O` [caffeine], which “ear thickness compared to solvents (DMSO or acetone)” value (mice ears; 2% in DMSO or 1.2% in acetone, with or without UVB) is on record?
**A.** Its value is “did not increase ear thickness”.

**Q.** And the “primary irritancy (ear)” value (mice ears; concentration of 2% in DMSO or 1.2% in acetone)?
**A.** Its value is “did not have primary irritancy”.

**Q.** What about the “irritation category (0-4)” value (back skin of mice; 0.5% caffeine in DMSO, day 0) of the same molecule?
**A.** Its value is 0.

**Q.** What about the “irritation category (0-4)” value (back skin of mice; 0.5% caffeine in DMSO, day 1) of the same molecule?
**A.** Its value is 0.

**Q.** And the “irritation category (0-4)” value (back skin of mice; 0.5% caffeine in DMSO, day 2)?
**A.** The value was 0.

**Q.** And the “irritation category (0-4)” value (back skin of mice; 0.5% caffeine in DMSO, day 3)?
**A.** The value was 0.

**Q.** And the “irritation category (0-4)” value (back skin of mice; 0.5% caffeine in DMSO, day 4)?
**A.** Its value is 0.

**Q.** And the “irritation category (0-4)” value (back skin of mice; 0.5% caffeine in DMSO, day 5)?
**A.** Its value is 0.

**Q.** And the “irritation category (0-4)” value (back skin of mice; 0.5% caffeine in acetone, day 0)?
**A.** Its value is 0.

**Q.** And the “irritation category (0-4)” value (back skin of mice; 0.5% caffeine in acetone, day 1)?
**A.** The value was 0.

**Q.** What about the “irritation category (0-4)” value (back skin of mice; 0.5% caffeine in acetone, day 2) of the same molecule?
**A.** The value was 0.

**Q.** And the “irritation category (0-4)” value (back skin of mice; 0.5% caffeine in acetone, day 3)?
**A.** The value was 0.

**Q.** And the “irritation category (0-4)” value (back skin of mice; 0.5% caffeine in acetone, day 4)?
**A.** The value was 0.

**Q.** And the “irritation category (0-4)” value (back skin of mice; 0.5% caffeine in acetone, day 5)?
**A.** Its value is 0.

**Q.** And the “irritation category (0-4)” value (back skin of mice; 1.2% caffeine in acetone, day 0)?
**A.** Its value is 0.

**Q.** And the “irritation category (0-4)” value (back skin of mice; 1.2% caffeine in acetone, day 1)?
**A.** Its value is 0.

**Q.** What about the “irritation category (0-4)” value (back skin of mice; 1.2% caffeine in acetone, day 2) of the same molecule?
**A.** The value was 0.

**Q.** What about the “irritation category (0-4)” value (back skin of mice; 1.2% caffeine in acetone, day 3) of the same molecule?
**A.** Its value is 0.

**Q.** And the “irritation category (0-4)” value (back skin of mice; 1.2% caffeine in acetone, day 4)?
**A.** Its value is 0.

**Q.** And the “irritation category (0-4)” value (back skin of mice; 1.2% caffeine in acetone, day 5)?
**A.** Its value is 0.

**Q.** What about the “irritation category (0-4)” value (back skin of mice; 2% caffeine in DMSO, day 0) of the same molecule?
**A.** The value was 0.

**Q.** What about the “irritation category (0-4)” value (back skin of mice; 2% caffeine in DMSO, day 1) of the same molecule?
**A.** The value was 0.

**Q.** What about the “irritation category (0-4)” value (back skin of mice; 2% caffeine in DMSO, day 2) of the same molecule?
**A.** The value was 0.

**Q.** What about the “irritation category (0-4)” value (back skin of mice; 2% caffeine in DMSO, day 3) of the same molecule?
**A.** Its value is 0.

**Q.** What about the “irritation category (0-4)” value (back skin of mice; 2% caffeine in DMSO, day 4) of the same molecule?
**A.** Its value is 0.

**Q.** What about the “irritation category (0-4)” value (back skin of mice; 2% caffeine in DMSO, day 5) of the same molecule?
**A.** Its value is 0.

**Q.** And the “irritation in mouse skin” value (back skin of mice; back skin, five consecutive days)?
**A.** The value was “did not cause irritation”.

**Q.** What about the “primary irritancy (back skin)” value (back skin of mice; concentration of 2% in DMSO and 1.2% in acetone) of the same molecule?
**A.** The value was “did not have primary irritancy”.

**Q.** What about the UVB-induced wrinkle formation (hairless Skh-1 mice; 1.2% in acetone, topical, 10 weeks) of the same molecule?
**A.** The UVB-induced wrinkle formation was “effective at reducing UVB-induced wrinkle formation”.

**Q.** And the “skin wrinkling score, average” value (hairless Skh-1 mice; group 2: No UVB + 1.2% caffeine in acetone, 100 μl on back three times weekly, after 10 weeks, scale 0 no wrinkle to 4 severe wrinkle)?
**A.** The value was 0.

Reference: patent US20050276765A1, “Preventing skin damage” (priority 2004, published 2005)
